Results on 15 compounds are retold here after patent US4992450A, “Piperidine opioid antagonists” (Eli Lilly and Company, priority 1989, dated 1991).

In assay [1] the test system is meal fed obese Zucker rats. Put plainly: Food consumption assay in meal fed obese Zucker rats. The class given is in vivo. The settings on record: Rattus norvegicus, sc, 4 h, amount to decrease food consumption 20% during first four hours. An excerpt: The following assay was employed to evaluate the ability of the compounds of the invention to effect food and water consumption of meal fed obese Zucker rats.
According to this procedure, 3-4 month old obese Zucker rats were trained to eat food daily from 8:00 A.M. to 4:00 P.M. only, such that the body weight gain approximates that if the rats were fed ad libitum. These rats were allowed to consume water at all times. Four groups of rats with four rats in each group, two female and two male, were formed. One group served as control for the other three groups each day. Each of the other groups were given a subcutaneous dose of the compound to be evaluated. The test compound was formulated in physiological saline containing 10% dimethylsulfoxide by volume.
Animals remained drug free for 4 days before the next test. Food and water consumption of each rat were measured for the first four hours. A test on one compound was run for three consecutive days. The drug effect was expressed as the percent of the control for that test day.
In the Table, column 1 gives the Example Number of the compound evaluated; and column 2 provides the ED20 in mg/kg, wherein ED20 represents the amount of compound evaluated in mg/kg necessary to decrease food consumption 20% during the first four hours of the experiment.

In assay [2] the target is T1, mu receptor (Rattus norvegicus, UniProt P33535).
T1 construct: rat whole brain minus cerebellum for mu and delta sites; from tissue; host or cells: rat whole brain minus cerebellum, frozen pellet fraction
T1 sequence (P33535 whole entry): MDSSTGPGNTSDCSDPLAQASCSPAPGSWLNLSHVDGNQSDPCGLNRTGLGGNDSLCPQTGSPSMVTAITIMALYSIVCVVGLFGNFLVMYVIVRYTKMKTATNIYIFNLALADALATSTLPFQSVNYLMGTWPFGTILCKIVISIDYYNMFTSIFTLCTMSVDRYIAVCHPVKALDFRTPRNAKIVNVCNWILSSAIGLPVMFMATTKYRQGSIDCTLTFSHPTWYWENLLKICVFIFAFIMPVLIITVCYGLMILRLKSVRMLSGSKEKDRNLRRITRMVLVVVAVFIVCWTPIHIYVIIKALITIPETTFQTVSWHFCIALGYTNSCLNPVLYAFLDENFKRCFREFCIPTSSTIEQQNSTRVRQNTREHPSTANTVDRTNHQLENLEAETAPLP
Briefly: Opioid receptor binding displacement assay, mu site (rat whole brain minus cerebellum, 3H ligand). More on the design: species or system Male Sprague Dawley rats. Here is the method:
(§1) This assay was conducted by the following procedure.
(§2) Male Sprague Dawley rats for mu and delta site experiments and male Hartley guinea pigs for kappa site experiments were sacrificed via decapitation and the brains were removed. The brain tissue, rat whole brain minus cerebellum for mu and delta sites and guinea pig cortex for the kappa site, was homogenized in a Teflon and glass tissue homogenizer. A supernatant I, pellet IV, fraction was frozen in a nitrogen freezer at 1.33 g/ml concentration and stored for not longer than five weeks prior to use. Pellets were rehydrated with physiological buffer prior to use.
(§3) The reaction was initiated by the addition of the rehydrated tissue which has been preincubated at 37° C. for 20 minutes. The reaction mixture was incubated in a 37° C. water bath for 20 minutes. The reaction was terminated by rapid filtration, (Amicon vacuum manifolds), through Whatman GF/C glass filters that had been presoaked in Krebs-Hepes buffer pH 7.4. The filters were then washed 2× with 5 ml of ice cold Krebs-Hepes buffer pH 7.4. Washed filters were placed in scintillation vials and 10 ml PCS, (Amersham), was added and samples counted in a Searle D-300 beta counter. Means and standard error statistics were calculated for triplicate experimental determinations in certain cases. The procedure was slightly modified for the kappa site. The tissue was pretreated with 100 nM concentrations of mu and delta receptor site blockers. The incubation time for the reaction mixture was 45 minutes at 37° C.

The target in assay [3] is T2, mu receptor (Mus musculus, UniProt P42866).
T2 construct: Five CF-1 male mice (Charles River, Portage, Mich.); from tissue; host or cells: whole living CF-1 male mice (in vivo)
T2 sequence (P42866 whole entry): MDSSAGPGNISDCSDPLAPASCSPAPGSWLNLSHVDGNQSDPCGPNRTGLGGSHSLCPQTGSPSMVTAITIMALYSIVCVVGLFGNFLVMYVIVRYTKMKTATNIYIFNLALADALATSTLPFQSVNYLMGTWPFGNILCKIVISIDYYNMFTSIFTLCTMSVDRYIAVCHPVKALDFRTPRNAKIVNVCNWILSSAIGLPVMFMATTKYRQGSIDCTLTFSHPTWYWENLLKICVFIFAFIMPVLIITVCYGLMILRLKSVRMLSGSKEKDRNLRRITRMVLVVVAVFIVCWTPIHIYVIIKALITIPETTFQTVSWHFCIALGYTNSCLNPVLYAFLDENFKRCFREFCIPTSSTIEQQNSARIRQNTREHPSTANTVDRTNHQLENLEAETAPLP
Put plainly: Mouse writhing assay, antagonism of morphine analgesia (mu). The format is in vivo, CF-1 male mice. The settings on record: sc, read-out: Mu AD50. Background: An intraperitoneal irritant provokes the stretching counted in writhing tests.

In assay [4] the target is T3, kappa receptor (Cavia porcellus, UniProt P41144).
T3 construct: guinea pig cortex for the kappa site; from tissue; host or cells: guinea pig cortex, frozen pellet fraction
T3 sequence (P41144 whole entry): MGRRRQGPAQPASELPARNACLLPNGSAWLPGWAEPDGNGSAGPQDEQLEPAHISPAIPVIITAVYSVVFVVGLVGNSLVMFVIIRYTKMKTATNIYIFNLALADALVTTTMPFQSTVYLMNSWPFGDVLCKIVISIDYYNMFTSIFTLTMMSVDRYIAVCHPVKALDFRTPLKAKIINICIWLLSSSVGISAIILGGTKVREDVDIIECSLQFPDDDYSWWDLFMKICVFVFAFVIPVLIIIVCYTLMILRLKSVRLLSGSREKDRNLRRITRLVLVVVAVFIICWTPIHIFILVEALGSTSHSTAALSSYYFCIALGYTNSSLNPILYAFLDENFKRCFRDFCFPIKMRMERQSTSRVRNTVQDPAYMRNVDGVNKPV
Put plainly: Opioid receptor binding displacement assay, kappa site (guinea pig cortex, 3H ligand). More on the design: species or system male Hartley guinea pigs. Here is the method: as §1, §2, §3

For assay [5], the target named is T4, kappa receptor (Mus musculus, UniProt P33534).
T4 construct: Five CF-1 male mice (Charles River, Portage, Mich.); from tissue; host or cells: whole living CF-1 male mice (in vivo)
T4 sequence (P33534 whole entry): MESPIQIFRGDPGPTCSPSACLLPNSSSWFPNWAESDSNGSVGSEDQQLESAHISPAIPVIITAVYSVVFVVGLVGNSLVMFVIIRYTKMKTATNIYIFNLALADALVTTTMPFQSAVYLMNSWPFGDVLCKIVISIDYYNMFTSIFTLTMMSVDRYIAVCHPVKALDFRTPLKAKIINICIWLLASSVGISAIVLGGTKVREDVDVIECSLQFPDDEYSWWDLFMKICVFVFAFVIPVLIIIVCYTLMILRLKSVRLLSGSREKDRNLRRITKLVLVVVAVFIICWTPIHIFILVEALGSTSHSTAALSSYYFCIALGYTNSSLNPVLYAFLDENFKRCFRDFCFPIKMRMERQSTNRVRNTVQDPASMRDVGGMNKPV
Briefly: in vivo. More on the design: species or system CF-1 male mice. The settings on record: sc, read-out: Kappa AD50.

The target of a further assay is T5, kappa receptors (Rattus norvegicus, UniProt P34975).
T5 construct: sixty male Long-Evans hooded rats; from tissue; host or cells: whole living male Long-Evans hooded rats (in vivo)
T5 sequence (P34975 whole entry): as the sequence (P33534 whole entry) above, with D11E, S17A, S51P, A308V counted along it
Put plainly: Rat diuresis assay, antagonism of bremazocine-induced urination. The format is in vivo, male Long-Evans hooded rats. As to conditions: sc, rats, s.c., urinary output reduced to 50% of effect of 0.08 mg/kg bremazocine alone. The procedure:
As such, the compounds of the invention were also evaluated in a rat diuresis assay conducted according to the following procedure described by Leander et al. in Drug Development Research 4:421-427 (1984) in an effort to further establish the ability of the present compounds to block kappa receptors.
According to this procedure, sixty male Long-Evans hooded rats (Charles River Breeding Laboratories, Portage, Mich.) weighing between about 300 and 500 grams each were housed either individually or in pairs in a temperature-controlled (23° C.) colony room which was illuminated between 6:00 A.M. and 6:00 P.M. Rodent chow and tap water were continuously available except during the measurement of urine output. The animals were used repeatedly, but no more frequently than twice a week.
The animals were then injected with various doses of the test compounds. To measure urine output, the animals were removed from the home cages, weighed, injected and placed in metabolism cages for 5 hr. Excreted urine was funneled into graduated cylinders. Cumulative urine volumes were determined at designated time intervals, usually at 2 and 5 hr after injection.
The compounds which are salt forms were dissolved in distilled water. If necessary, the compounds were dissolved in distilled water with the aid of either a few drops of lactic acid or hydrochloric acid and gentle warming. All injections were s.c. in a volume of 1 ml/kg of body weight. During tests for antagonism, two injections were given, one on each side of the body.
In the Table, column 1 provides the Example Number of the compound tested; column 2, the amount of compound in mg/kg necessary to reduce the urinary output to 50% of the effect produced by 0.08 mg/kg of bremazocine alone two hours after injection of bremazocine and the test compound; and column 3, the amount of compound in mg/kg necessary to reduce the urinary output to 50% of the effect produced by 0.08 mg/kg of bremazocine alone five hours after injection of bremazocine and the test compound.

[6] abbreviates: 2 h, two hours after injection, read-out: AD50 Two Hours.
The mark [7] stands for this setting: 5 h, five hours after injection, read-out: AD50 Five Hours.
The mark [8] stands for this setting: rat brain minus cerebellum, pH 7.4, 37° C., 20 minutes, read-out: Ki Mu.

Counter-ions that a name gives are not always drawn. Like-named read-outs stand apart in the source and are kept apart here.

What is called Ki is a measure of affinity in units of concentration, obtained from inhibition or displacement.

`C=CCCCCN1CCC(C)(c2cccc(O)c2)C(C)C1` (stereo not drawn) [Example 21, trans-(±)-1-(5-n-Hexenyl)-3,4-dimethyl-4-(3-hydroxyphenyl)piperidine hydrochloride] displayed an ED20 in assay [1] of 9.37 mg/kg. Further, the Ki on mu receptor [2] worked out at 1.61 nM.
For `CC(C)CCCCN1CCC(C)(c2cccc(O)c2)C(C)C1` (stereo not drawn) [Example 4, trans-(±)-1-(5-Methylhexyl)-3,4-dimethyl-4-(3-hydroxyphenyl)piperidine hydrochloride], in assay [1], the ED20 came to 0.05 mg/kg. Besides, the ED50 is 0.35 mg/kg at mu receptor [3], 0.23 mg/kg at kappa receptor [5], 0.17 mg/kg on kappa receptors (setting [6]) and 0.46 mg/kg at kappa receptors (setting [7]). Further, the Ki on kappa receptor [4] (read-out: Ki Kappa, guinea pig cortex, pH 7.4, 37° C., 45 minutes, mu and delta sites blocked (100 nM)) was 6.04 ± 0.44 nM.
With `C[C@H]1CN(C)CC[C@@]1(C)c1cccc(O)c1` (relative stereo) [Compound B, 3-(1,3α,4β-Trimethyl-4α-piperidyl)phenol hydrochloride, reference compound], in assay [1], the ED20 was determined as 3.99 mg/kg. Also, the results for the ED50 on mu receptor [3] and at kappa receptor [5] were 0.74 mg/kg and 2.5 mg/kg, respectively. Besides, the Ki on mu receptor [2] (setting [8]) worked out at 80 nM.
Turning to `C[C@H]1CN(CCC(=O)C2CCCC2)CC[C@@]1(C)c1cccc(O)c1` (relative stereo) [Example 17, trans-(±)-1-(1-Cyclopentylpropanon-3-yl)-3,4-dimethyl-4-(3-hydroxyphenyl)piperidine hydrochloride], in assay [1], the ED20 was found to be 0.31 mg/kg. Besides, the ED50 at mu receptor [3] was determined as 0.21 mg/kg; on kappa receptor [5] it was 0.19 mg/kg. For the same compound, the figures for the Ki at kappa receptor [4] and on mu receptor [2] were 0.55 nM and 0.84 nM, respectively.
Consider `CC1CN(CC2CCCCC2)CCC1(C)c1cccc(O)c1` (stereo not drawn) [Example 10, trans-(±)-1-(Cyclohexylmethyl)-3,4-dimethyl-4-(3-hydroxyphenyl)piperidine hydrochloride], for which the ED20 in assay [1] was 1.25 mg/kg. The ED50 on mu receptor [3] came to 0.46 mg/kg; at kappa receptor [5] it was 0.34 mg/kg; at kappa receptors (setting [6]), 14.9 mg/kg; on kappa receptors (setting [7]), 3.9 mg/kg. Besides, at kappa receptor [4], the affinity corresponds to a Ki of 28.2 nM.
Take `CC1CN(CCCc2ccsc2)CCC1(C)c1cccc(O)c1` (stereo not drawn) [Example 41, trans-(±)-1-[3-(3-Thienyl)propyl]-3,4-dimethyl-4-(3-hydroxyphenyl)piperidine hydrochloride]: the ED50 on mu receptor [3] was 0.12 mg/kg; on kappa receptor [5], 0.24 mg/kg; at kappa receptors (setting [6]) it was 2.7 mg/kg; at kappa receptors (setting [7]), 1.9 mg/kg. This compound registered a Ki at kappa receptor [4] of 10.3 nM.
In turn, `C[C@@H]1CN(CC[C@@H](O)C2CCCCC2)CC[C@]1(C)c1cccc(O)c1` [Example 26, trans-(-)-1-[R-(3-Hydroxy-3-cyclohexylpropyl)]-3,4-dimethyl-4-(3-hydroxyphenyl)piperidine] registered an ED20 in assay [1] of 0.35 mg/kg. Further, the results for the ED50 on mu receptor [3] and on kappa receptor [5] were 0.07 mg/kg and 0.52 mg/kg, respectively. This compound also returned a Ki on mu receptor [2] of 2.24 ± 0.17 nM.
In the case of `CC(C)CCN1CCC(C)(c2cccc(O)c2)C(C)C1` (stereo not drawn) [Example 16, trans-(±)-1-(3-Methylbutyl)-3,4-dimethyl-4-(3-hydroxyphenyl)piperidine hydrochloride], the ED20 in assay [1] is more than 20 mg/kg. The ED50 on mu receptor [3] came to 0.87 mg/kg; at kappa receptor [5] it was 0.62 mg/kg; on kappa receptors (setting [6]), 7.7 mg/kg; at kappa receptors (setting [7]) it was 4.45 mg/kg. The same compound had a Ki on kappa receptor [4] of 70.1 nM.
`CC1CN(CCC2CCCC2)CCC1(C)c1cccc(O)c1` (stereo not drawn) [Example 6, trans-(±)-1-(2-Cyclopentylethyl)-3,4-dimethyl-4-(3-hydroxyphenyl)piperidine hydrochloride]: the ED20 in assay [1] stood at 0.33 mg/kg. Moreover, the ED50 amounted to 0.13 mg/kg on mu receptor [3], 0.22 mg/kg on kappa receptor [5] and 0.67 mg/kg on kappa receptors (setting [7]). At mu receptor [2], this compound returned a Ki of 0.94 nM.
Turning to `COC(CCN1CC[C@@](C)(c2cccc(O)c2)[C@@H](C)C1)C1CCCCC1` (relative stereo) [Example 31, trans-(±)-1-[R,S-(3-Methoxy-3-cyclohexylpropyl)]-3,4-dimethyl-4-(3-hydroxyphenyl)piperidine hydrochloride], the ED50 was 1.42 mg/kg on mu receptor [3] and 0.44 mg/kg at kappa receptor [5]. The Ki was found to be 3.82 nM on kappa receptor [4] (guinea pig cortex, pH 7.4, 37° C., 45 minutes, mu and delta sites blocked (100 nM), read-out: Ki Kappa); 0.77 nM at mu receptor [2] (setting [8]).
The compound `C[C@H]1CN(CCC(O)c2cccs2)CC[C@@]1(C)c1cccc(O)c1` (relative stereo) [Example 40, trans-(±)-1-[R,S-[3-Hydroxy-3-(2-thienyl)-propyl]-3,4-dimethyl-4-(3-hydroxyphenyl)piperidine hydrochloride] displayed an ED20 in assay [1] of 0.11 mg/kg. Further, the ED50 turned out to be 0.065 mg/kg at mu receptor [3], 0.14 mg/kg at kappa receptor [5], 3.78 mg/kg at kappa receptors (setting [6]) and 1.44 mg/kg at kappa receptors (setting [7]). Further, the Ki at mu receptor [2] (setting [8]) was 0.5 nM.
Compound `CC1CN(CCCC2CCCCC2)CCC1(C)c1cccc(O)c1` (stereo not drawn) [Example 11, trans-(±)-1-(3-Cyclohexylpropyl)-3,4-dimethyl-4-(3-hydroxyphenyl)piperidine hydrochloride] showed an ED20 in assay [1] of 0.15 mg/kg. In addition, the ED50 on mu receptor [3] was determined as 0.19 mg/kg; on kappa receptor [5] it was 0.35 mg/kg; at kappa receptors (setting [6]), 1.9 mg/kg; at kappa receptors (setting [7]), 1.02 mg/kg. The compound also showed a Ki on kappa receptor [4] of 2.34 nM.
Compound `CCCCCCN1CCC(C)(c2cccc(O)c2)C(C)C1` (stereo not drawn) [Example 22, trans-(±)-1-(n-Hexyl)-3,4-dimethyl-4-(3-hydroxyphenyl)piperidine hydrochloride] showed an ED20 in assay [1] of 0.78 mg/kg. Besides, the ED50 at mu receptor [3] stood at 0.05 mg/kg; on kappa receptor [5], 0.11 mg/kg; at kappa receptors (setting [6]), 1.31 mg/kg; at kappa receptors (setting [7]), 0.7 mg/kg.
As for `C[C@H]1CN(CCC2C=CCC2)CC[C@@]1(C)c1cccc(O)c1` (relative stereo) [Example 7, trans-(±)-1-[2-(2-Cyclopenten-1-yl)ethyl]-3,4-dimethyl-4-(3-hydroxyphenyl)piperidine hydrochloride], the ED20 in assay [1] turned out to be 0.34 mg/kg. Further, the ED50 at mu receptor [3] was found to be 0.11 mg/kg; at kappa receptor [5] it was 0.12 mg/kg; on kappa receptors (setting [6]), 1.3 mg/kg; on kappa receptors (setting [7]) it was 1.38 mg/kg. At kappa receptor [4], this compound registered a Ki of 1.04 nM.
In assay [1], `CCCCCN1CCC(C)(c2cccc(O)c2)C(C)C1` (stereo not drawn) [Example 14, trans-(±)-1-(n-Pentyl)-3,4-dimethyl-4-(3-hydroxyphenyl)piperidine hydrochloride] yielded an ED20 of 4.47 mg/kg. In addition, the ED50 at mu receptor [3] was 0.37 mg/kg; on kappa receptor [5], 0.6 mg/kg; on kappa receptors (setting [6]), 0.78 mg/kg; at kappa receptors (setting [7]), 0.69 mg/kg.
